Assay results published in paper PMC7126999 (Bioorganic & Medicinal Chemistry, 2015).
Where “and” joins values, the source holds several entries; their conditions need not be identical. Identical values can stand only once. Like-named read-outs stand apart in the source and are kept apart here.

Legend:
[1] = system: murine leukemia L1210; test: Inhibition of proliferation of murine leukemia L1210 cells; assay type: cell-based; conditions: read-out: IC50 L1210; inhibit tumor cell proliferation by 50%
[2] = system: human lymphocyte CEM; test: Inhibition of proliferation of human T-lymphocyte CEM cells; assay type: cell-based; conditions: for IC50: read-out: IC50 CEM; for cytostatic activity against CEM relative to 5-fluorouracil: fold more active than 5-fluorouracil
[3] = system: human cervix carcinoma HeLa cells; test: Inhibition of proliferation of human cervix carcinoma HeLa cells; assay type: cell-based; conditions: read-out: IC50 HeLa
[4] = system: MDCK cells; test: Cell viability of MDCK cells, formazan-based MTS assay; parameters: species or system canine; conditions: read-out: CC50 MDCK; cell viability, colorimetric formazan-based MTS assay
[5] = system: CrFK cells; test: Cell viability of CrFK cells, formazan-based MTS assay; parameters: species or system feline; conditions: read-out: CC50 CrFK; cell viability, colorimetric formazan-based MTS assay
[6] = system: Vaccinia virus; test: microbe, parasite or virus in culture; assay type: cell-based; conditions: for EC50: Orthopoxvirus vaccinia, HEL, read-out: EC50 Vaccinia virus
[7] = system: HEL cells; test: Cytotoxicity, cell morphology; assay type: cell-based, human; conditions: exp. 1 and exp. 2
[8] = system: HSV and Vaccinia viruses; test: microbe, parasite or virus in culture; assay type: cell-based, herpes simplex virus; vaccinia virus; conditions: Orthopoxvirus vaccinia, read-out: EC50 against HSV and Vaccinia viruses
[9] = system: three strains of herpes simplex virus; assay type: cell-based; conditions: HEL, read-out: EC50 against three strains of herpes simplex virus
[10] = Cell viability of CrFK cells, formazan-based MTS assay; parameters: species or system feline; conditions: cat, CrFK cells
[11] = system: Punta Toro virus; test: microbe, parasite or virus in culture; assay type: cell-based; conditions: Vero, read-out: EC50 Punta Toro virus
[12] = system: Coxsackie virus B4; assay type: cell-based; conditions: Vero cell cultures; DS-10.000 in μg/ml
[13] = system: L1210, CEM and HeLa cell lines; test: Cytostatic activity on L1210, CEM and HeLa cell lines; assay type: cell-based, murine; human; conditions: fold more cytostatic than cis-9d / cis-9f
[14] = Cell viability of MDCK cells, formazan-based MTS assay; parameters: species or system canine; conditions: dog, MDCK cells
[15] = system: cytomegalovirus; test: Antiviral activity against cytomegalovirus in HEL cells; assay type: cell-based, human cytomegalovirus (HCMV); conditions: read-out: EC50 toward cytomegalovirus, strain not specified
[16] = inhibit tumor cell proliferation by 50%
[17] = Table 3 (cytomegalovirus assays)

Compound: CCOP(=O)(OCC)[C@H]1C[C@H](CN2C(=O)c3cccc4cc(NC(C)=O)cc(c34)C2=O)ON1C (relative stereo) [trans-10d/cis-10d (93:7), Diethyl trans-5-(5-acetamido-1,3-dioxo-2,3-dihydro-1H-benzo[de]izochinolin-2-ylmethyl)-2-methylisoxazolidin-3-yl-3-phosphonate]
- IC50 [1]: 136 ± 14 µM
- IC50 [2, 16]: 125 ± 4 µM
- IC50 [3, 16]: 111 ± 3 µM
- CC50 [4]: > 100 µM
- CC50 [5]: > 100 µM

Compound: Nc1nc2c(ncn2COCCO)c(=O)[nH]1 [Acyclovir, acyclovir]
- activity against vaccinia virus, in words [6]: inactive

Compound: CCOP(=O)(OCC)[C@H]1C[C@H](CN2C(=O)c3cccc4cccc(c34)C2=O)ON1C (relative stereo) [trans-10a/cis-10a (93:7), Diethyl trans-5-(1,3-dioxo-2,3-dihydro-1H-benzo[de]izochinolin-2-ylmethyl)-2-methylisoxazolidin-3-yl-3-phosphonate]
- IC50 [1]: 180 ± 47 µM
- IC50 [2, 16]: 111 ± 14 µM
- IC50 [3, 16]: 77 ± 20 µM
- CC50 [4]: > 100 µM
- CC50 [5]: > 100 µM

Compound: CCOP(=O)(OCC)[C@@H]1C[C@H](C(=O)Nc2cc3c4c(cccc4c2)C(=O)N(CCN(C)C)C3=O)ON1C (racemic) [cis-9d, Diethyl cis-5-[N-(2-dimethylamino)ethylnaphthalimide-3-ylcarbamoyl]-2-methylisoxazolidin-3-yl-3-phosphonate]
- Cytotoxicity Cell morphology MCC [7, 17]: >100 μM
- Cytotoxicity Cell morphology MCC ([7]; Table 4 (VZV assays)): 100 μM
- EC50 [8]: 45 to 58 µM
- EC50 [9]: 45 to 100 µM

Compound: CCOP(=O)(OCC)[C@H]1C[C@H](CN2C(=O)c3cccc4cc(N)cc(c34)C2=O)ON1C (relative stereo) [trans-10c/cis-10c (93:7), Diethyl trans-5-(5-amino-1,3-dioxo-2,3-dihydro-1H-benzo[de]izochinolin-2-ylmethyl)-2-methylisoxazolidin-3-yl-3-phosphonate]
- IC50 [1]: 95 ± 42 µM
- IC50 [2, 16]: 99 ± 2 µM
- IC50 [3, 16]: 101 ± 58 µM
- CC50 [4]: > 100 µM
- CC50 [5]: > 100 µM

Compound: CCCN1C(=O)c2cccc3cc(NC(=O)[C@@H]4C[C@@H](P(=O)(OCC)OCC)N(C)O4)cc(c23)C1=O (racemic) [trans-9a, Diethyl trans-5-(N-propylnaphtalimide-3-ylcarbamoyl)-2-methylisoxazolidin-3-yl-3-phosphonate]
- Cytotoxicity Cell morphology MCC [7, 17]: >100 μM
- Cytotoxicity Cell morphology MCC ([7]; Table 4 (VZV assays)): >100 μM
- CC50 [10]: > 100 µM

Compound: CCOP(=O)(OCC)[C@@H]1C[C@H](C(=O)Nc2cc3c4c(cccc4c2)C(=O)N(CCN2CCCC2)C3=O)ON1C (racemic) [cis-9f, Diethyl cis-5-[N-(2-pirolidyn-1-yl)ethylnaphthalimide-3-ylcarbamoyl]-2-methylisoxazolidin-3-yl-3-phosphonate]
- Cytotoxicity Cell morphology MCC [7, 17]: >100 μM
- Cytotoxicity Cell morphology MCC ([7]; Table 4 (VZV assays)): 100 μM and >100 μM
- EC50 [6]: 45 to 100 µM

Compound: NC(=O)c1ncn([C@@H]2O[C@H](CO)[C@@H](O)[C@H]2O)n1 [Ribavirin, ribavirin]
- EC50 [11]: 250 µM

Compound: dextran sulfate [DS-10.000]
- EC50 Coxsackie virus B4 [12]: >100 µg/mL

Compound: Nc1ccn(C[C@@H](CO)OCP(=O)(O)O)c(=O)n1.O.O [Cidofovir, cidofovir, reference compound]
- Cytotoxicity Cell morphology MCC [7, 17]: >350 μM

Compound: CCOP(=O)(OCC)[C@@H]1C[C@@H](C(=O)Nc2cc3c4c(cccc4c2)C(=O)N(CCN(C)C)C3=O)ON1C (racemic) [trans-9d, Diethyl trans-5-[N-(2-dimethylamino)ethylnaphthalimide-3-ylcarbamoyl]-2-methylisoxazolidin-3-yl-3-phosphonate]
- Cytotoxicity Cell morphology MCC [7, 17]: 100 μM
- Cytotoxicity Cell morphology MCC ([7]; Table 4 (VZV assays)): >100 μM
- cytostatic activity against CEM relative to 5-fluorouracil [2]: five-fold
- EC50 [8]: 45 to 58 µM
- cytostatic activity of trans-isomer relative to corresponding cis-isomer [13]: two-fold
- EC50 [9]: 45 to 100 µM

Compound: CCCCN1C(=O)c2cccc3cc(NC(=O)[C@H]4C[C@@H](P(=O)(OCC)OCC)N(C)O4)cc(c23)C1=O (racemic) [cis-9b, Diethyl cis-5-(N-butylnaphthalimide-3-ylcarbamoyl)-2-methylisoxazolidin-3-yl-3-phosphonate]
- Cytotoxicity Cell morphology MCC [7, 17]: 100 μM
- Cytotoxicity Cell morphology MCC ([7]; Table 4 (VZV assays)): >100 μM
- IC50 ([3]; Homo sapiens, HeLa): 25 ± 3 µM
- CC50 [14]: > 100 µM
- CC50 [10]: > 100 µM

Compound: Nc1nc2c(ncn2COC(CO)CO)c(=O)[nH]1 [Ganciclovir, ganciclovir, reference compound]
- Cytotoxicity Cell morphology MCC [7, 17]: >350 μM
- activity against vaccinia virus, in words [6]: inactive

Compound: CCCCN1C(=O)c2cccc3cc(NC(=O)[C@@H]4C[C@@H](P(=O)(OCC)OCC)N(C)O4)cc(c23)C1=O (racemic) [trans-9b, Diethyl trans-5-(N-butylnaphthalimide-3-ylcarbamoyl)-2-methylisoxazolidin-3-yl-3-phosphonate]
- Cytotoxicity Cell morphology MCC [7, 17]: 100 μM
- Cytotoxicity Cell morphology MCC ([7]; Table 4 (VZV assays)): >100 μM

Compound: CCOP(=O)(OCC)[C@@H]1C[C@H](C(=O)Nc2cc3c4c(cccc4c2)C(=O)N(CCN(CC)CC)C3=O)ON1C (racemic) [cis-9e, Diethyl cis-5-[N-(2-diethylamino)ethylnaphthalimide-3-ylcarbamoyl]-2-methylisoxazolidin-3-yl-3-phosphonate]
- CC50 [14]: > 100 µM

Compound: O=c1[nH]cc(F)c(=O)[nH]1 [5-Fluorouracil, reference compound]
- IC50 ([2]; Homo sapiens, Lymphocyte): 18 ± 5 µM
- IC50 ([3]; Homo sapiens, HeLa): 0.54 ± 0.12 µM

Compound: CCOP(=O)(OCC)[C@@H]1C[C@@H](C(=O)Nc2cc3c4c(cccc4c2)C(=O)N(CCN(CC)CC)C3=O)ON1C (racemic) [trans-9e, Diethyl trans-5-[N-(2-diethylamino)ethylnaphthalimide-3-ylcarbamoyl]-2-methylisoxazolidin-3-yl-3-phosphonate]
- CC50 [10]: > 100 µM

Compound: CCOP(=O)(OCC)[C@@H]1C[C@H](C(=O)Nc2cc3c4c(cccc4c2)C(=O)N(CC(C)C)C3=O)ON1C (racemic) [cis-9c, Diethyl cis-5-(N-isobutylnaphthalimide-3-ylcarbamoyl)-2-methylisoxazolidin-3-yl-3-phosphonate]
- Cytotoxicity Cell morphology MCC [7, 17]: >100 μM
- Cytotoxicity Cell morphology MCC ([7]; Table 4 (VZV assays)): >100 μM

Compound: CCOP(=O)(OCC)[C@@H]1C[C@@H](C(=O)Nc2cc3c4c(cccc4c2)C(=O)N(CCN2CCCC2)C3=O)ON1C (racemic) [trans-9f, Diethyl trans-5-[N-(2-pirolidyn-1-yl)ethylnaphthalimide-3-ylcarbamoyl]-2-methylisoxazolidin-3-yl-3-phosphonate]
- Cytotoxicity Cell morphology MCC [7, 17]: 100 μM
- Cytotoxicity Cell morphology MCC ([7]; Table 4 (VZV assays)): 100 μM
- cytostatic activity against CEM relative to 5-fluorouracil [2]: five-fold
- EC50 [15]: 8.9 to 20 µM
- EC50 [8]: 45 to 58 µM
- cytostatic activity of trans-isomer relative to corresponding cis-isomer [13]: two-fold
- EC50 [9]: 45 to 100 µM

Compound: CCCN1C(=O)c2cccc3cc(NC(=O)[C@H]4C[C@@H](P(=O)(OCC)OCC)N(C)O4)cc(c23)C1=O (racemic) [cis-9a, Diethyl cis-5-(N-propylnaphthalimide-3-ylcarbamoyl)-2-methylisoxazolidin-3-yl-3-phosphonate]
- Cytotoxicity Cell morphology MCC [7, 17]: >100 μM
- Cytotoxicity Cell morphology MCC ([7]; Table 4 (VZV assays)): >100 μM

Compound: CCOP(=O)(OCC)[C@H]1C[C@H](CN2C(=O)c3cccc4cc([N+](=O)[O-])cc(c34)C2=O)ON1C (relative stereo) [trans-10b/cis-10b (94:6), Diethyl trans-5-(5-nitro-1,3-dioxo-2,3-dihydro-1H-benzo[de]izochinolin-2-ylmethyl)-2-methylisoxazolidin-3-yl-3-phosphonate]
- IC50 [1]: 34 ± 6 µM
- IC50 [2, 16]: 51 ± 6 µM
- IC50 [3, 16]: 20 ± 3 µM
- CC50 [4]: > 100 µM
- CC50 [5]: > 100 µM

Compound: O=c1[nH]c(=O)n([C@H]2C[C@H](O)[C@@H](CO)O2)cc1/C=C/Br [Brivudin, brivudin, reference compound]
- Cytotoxicity Cell morphology MCC ([7]; Table 4 (VZV assays)): >300 μM
- EC50 [6]: 17 to 22 µM

Compound: CCOP(=O)(OCC)[C@@H]1C[C@@H](C(=O)Nc2cc3c4c(cccc4c2)C(=O)N(CC(C)C)C3=O)ON1C [trans-9c, Diethyl trans-5-(N-isobutylnaphthalimide-3-ylcarbamoyl)-2-methylisoxazolidin-3-yl-3-phosphonate]
- Cytotoxicity Cell morphology MCC [7, 17]: >100 μM
- Cytotoxicity Cell morphology MCC ([7]; Table 4 (VZV assays)): >100 μM
- CC50 [10]: > 100 µM
